In patent publication US6974664B2, “Screening method for cancer therapeutics and stable antitumor drug” (The Board of Trustees of the Leland Stanford University, priority 2000, dated 2005):

Assays:
[1] = system: LYas cells; test: % killing of LYas cells with apoptolidin or oligomycin plus oxamate; assay type: cell-based, murine; details: 7 hours; for lowest concentration showing substantial killing in presence of oxamate: LYas cells 1×10^6 ml, with oxamate
Procedure: Similar results are shown in FIG. 8 for LYas cells, where cells planted at 1×10^6 ml were assessed for % killing after 7 hours when treated with various concentrations of apoptolidin or oligomycin in the presence of various concentrations of oxamate. When no apoptosis drugs are administered, there is no effect of oxamate up to a concentration of 15 mM. However, at concentrations where the oxamate alone has no effect, both oligomycin and apoptolidin were able to show substantial killing at concentrations as low as 0.1 mM.

[2] = target: T1, yeast mitochondrial FOF1-ATP synthase (Saccharomyces cerevisiae, UniProt P00830+P07251+P38077+P61829); test: Yeast mitochondrial ATPase activity assay; assay type: biochemical; details: for consumption of NADH: 80 μM oligomycin or 87 μM apoptolidin, 20 μg yeast mitochondrial protein; for Ki: yeast mitochondria, pH 8, read-out: calculated Ki, ATPase activity
T1 construct: 20 μg of yeast mitochondrial protein (as measured by the Lowry method) was added to reaction buffer; endogenous in cells; host or cells: Crude mitochondria from Saccharomyces cerevisiae strain DBY7286 grown on lactate
Procedure: The assay is that described in Example 4 hereinbelow where the combination of pyruvate kinase and LDH effect conversion of phosphoenol pyruvate to lactate in the presence of ATP and NADH. With increasing concentrations of either drug, the specific activity of the enzyme rapidly declines. The calculated Ki values for oligomycin and apoptolidin are 1 μM and 5 μM respectively. Although the observed Ki for apoptolidin is five-fold higher than that for oligomycin, this may be an underestimate of the potency of apoptolidin. […] Mitochondrial ATPase activity assays are typically performed at pH 8. Thus, the true Ki for apoptolidin may be lower than that observed herein and accounts for the observation the IC50 values for apoptolidin against both LYas as well as MCF7 cells are substantially lower than the measured Ki against mitochondrial ATPase. This difference might be explained by a preference for mammalian ATPase over yeast ATPase, or by the possibility that apoptosis via this pathway is a dominant phenotype.
Crude yeast mitochondria were isolated from a lactate grown Saccharomyces cerevisiae strain DBY7286 (mata, ura-/-) according to published procedures. Briefly, 2 L shake flasks of yeast were grown up on semisynthetic lactate medium at 30° C. with vigorous shaking to an OD600 of 3. Cells were collected at 4000 g and the wet weight of the pellet was determined. Cells were converted to spheroplasts by a 30 minute incubation at 30° C. with 2.5 mg Zymolyase 20T (ICN Biochemicals) per gram of packed cells in a volume of 2 ml per gram of packed cells in Buffer A (1.2 M sorbitol, 20 mM potassium phosphate, pH 7.4). The Zymolyase 20T was washed out twice by centrifugation at 4000 g and resuspension in Buffer A. The spheroplasts were then resuspended in Buffer B (0.6 M sorbitol, 20 mM K^+ MES, pH6.0) with 0.5 mM PMSF and homogenized in a 40 ml glass Dounce homogenizer using 15 strokes with a tight-fitting pestle. The unbroken spheroplasts were collected by centrifugation at 1500 g and rehomogenized with 15 strokes in Buffer B plus PMSF. […] The protein concentration was determined by the Lowry assay and the dark brown mitochondria were resuspended in Buffer C (0.6 M sorbitol, 20 mM HEPES, pH 7.4). Mitochondria were prepared fresh and ATPase activity was measured within 6 hours.
Mitochondrial ATPase activity was measured by standard methods. Briefly, 20 μg of yeast mitochondrial protein (as measured by the Lowry method) was added to reaction buffer containing 50 mM Tris (pH 8.0), 1 mM ATP, 0.3 mM NADH, 3.3 mM MgCl2, 2 μg/ml antimycin A, 1 mM phosphoenol pyruvate, 5 U/ml lactate dehydrogenase, and 2.5 U/ml pyruvate kinase at 28° C. […]

[3] = system: Jurkat cells; test: Sensitization of Jurkat cells to apoptolidin by oxamate or deoxyglucose; assay type: cell-based
Procedure: For example, Jurkat cells planted at 40,000 cells per well and treated with 1 μM of apoptolidin show no cell death over a time period of 20 hours. […] Treatment with these amounts of oxamate alone has no effect. (Oxamate is a known inhibitor of lactate dehydrogenase; which converts pyruvate to lactate.)
Another compound known to repress the flow of glucose through the fermentative pathway is deoxyglucose which competes with glucose for this pathway but results in a dead end. […] Deoxyglucose alone at the control concentrations has no effect.

[4] = system: PARP; test: PARP cleavage in the presence of apoptolidin; assay type: cell-based; details: 1 μM apoptolidin, within 6 hours
Excerpt: Among those cells which have high ATP requirements, aerobic cells are sensitive, while anaerobic cells are resistant.

[5] = system: mouse B cell lymphoma cell line LYAS; test: FACS staining for annexin V, LYAS cells; assay type: cell-based; details: 6 hours incubation, read-out: IC50, percentage of annexin V+ cells
Procedure: (§1) Activity was measured by FACS staining for annexin V and by MTT assay.
The mouse B cell lymphoma cell line LYAS was incubated with apoptolidin in a compound of formula 1 for 6 hours. The treating compounds were removed and the cells were stained with annexin V-CY5PE for 15 minutes and washed 3 times. Cells were analyzed on the FACSAN and the percentage of annexin V+ cells was quantified. The IC50 of the compound of formula 1 was 10 μM; the IC50 of apoptolidin was 100 nM.

[6] = Stability by analytical reverse phase HPLC at pH 4, 7 and 10; assay type: physicochemical; details: for time structure retained: pH 4; for time remained intact / decomposition: pH 10
Procedure: Stability was monitored by an analytical reverse phase HBLC using a Beckman C18 column (4.6 mm×25 cm). Stability was analyzed in this manner at pH 4, 7 and 10, both for apoptolidin and the compound of formula 1. At pH 4, apoptolidin retained its structure for 24 hours; the compound of formula 1 for at least 28 hours when observation was terminated.

[7] = system: breast carcinoma cell line MCF-7; test: MTT assay, MCF-7 cells; assay type: cell-based; details: Homo sapiens, MCF7; MCF-7, 120 hours
Procedure: as §1
The breast carcinoma cell line MCF-7 was tested in 96-well plates in triplicate. Dilutions of apoptolidin or the compound of formula 1 were added to the wells for 120 hours. MTT was then added to the wells at a final concentration of 0.5 mg/ml. The supernatant was removed and the crystals dissolved in 40 mM HCl and isopropanol. The plates were scanned on a microplate reader at 595 nm. The IC50 of the compound of formula 1 was 10 μM; the IC50 of apoptolidin was 90 nM.

[8] = system: breast carcinoma cell line MCF-7; details: MCF-7, MTT assay; cited from earlier work
[9] = system: mouse B cell lymphoma cell line LYAS; details: FACS staining for Annexin V; cited from earlier work

| Compound | lowest concentration showing substantial killing in presence of oxamate [1] | consumption of NADH [2] | Ki [2] | IC50 [5] | time structure retained [6] | time remained intact / decomposition [6] | IC50 [7] | also measured |
| --- | --- | --- | --- | --- | --- | --- | --- | --- |
| CC[C@H]1/C=C/C=C/C[C@@H](C)[C@H](O)[C@@](C)(O)C(=O)[C@@H](C)[C@H](O)[C@@H](C)C(=O)[C@@H](C)[C@H](O)[C@@H](C)/C=C/C(=O)O[C@@H]2[C@H](C)[C@H](CC1)O[C@]1(CC[C@H](C)[C@H](C[C@@H](C)O)O1)[C@H]2C [oligomycin] | 0.1 mM | dramatically reduced | 1 µM | – | – | – | – | – |
| O=CC[C@@H](O)[C@H](O)[C@H](O)CO [deoxyglucose, 2-deoxyglucose] | – | – | – | – | – | – | – | effect on cell death, enhancer alone ([3]; deoxyglucose alone at the control concentrations): no effect; lowest deoxyglucose concentration at which apoptolidin effects apoptosis ([3]; with 1 μM apoptolidin): 5 mM |
| COC[C@@H](C[C@H]1O[C@@](O)([C@H](O)[C@@H]2C[C@H](OC)[C@@H](O)CC/C=C(C)/C=C/[C@@H](O[C@@H]3O[C@@H](C)[C@H](OC)[C@@H](O)[C@@H]3O)[C@H](C)/C=C(C)/C=C(C)/C=C(\C)C(=O)O2)[C@H](C)[C@@H](O)[C@H]1C)OC1C[C@](C)(O)[C@@H](O[C@H]2C[C@@H](OC)[C@H](O)[C@@H](C)O2)[C@H](C)O1 (stereo partly drawn) [apoptolidin] | 0.1 mM | dramatically reduced | 5 µM | 0.1 µM | 24 h | decomposed almost immediately | 0.09 µM | PARP cleavage [4]: completely cleaved; cell death ([3]; 1 μM apoptolidin + 5 mM oxamate): does not dramatically change this result; time at which cell death begins ([3]; 1 μM apoptolidin + 50 mM oxamate): four; cells killed ([3]; 1 μM apoptolidin + 50 mM oxamate, by 20 hours): 95%; cell death ([3]; 1 μM apoptolidin alone, 40,000 cells per well, over 20 hours): no cell death; half-life ([6]; buffer, pH 7, read-out: decomposition half-life (converted)): ~5 h |
| NC(=O)C(=O)O [oxamate] | – | – | – | – | – | – | – | effect on % killing, oxamate alone ([1]; no apoptosis drug, up to 15 mM oxamate): no effect; effect on cell death, enhancer alone ([3]; oxamate alone, 5 mM and 50 mM): no effect |
| COC[C@H](O)C[C@H]1O[C@@](O)([C@H](O)[C@@H]2C[C@H](OC)[C@@H](O)CC/C=C(C)/C=C/[C@@H](O[C@@H]3OC(C)[C@H](OC)[C@@H](O)[C@@H]3O)[C@H](C)/C=C(C)/C=C(C)/C=C(\C)C(=O)O2)C(C)=C[C@H]1C (stereo partly drawn) [compound of formula 1] | – | – | – | 10 µM | at least 28 hours | at least 28 hours | 10 µM | cytotoxic activity relative to apoptolidin [8]: 1%; cytotoxic activity relative to apoptolidin [9]: 1%; time remained intact ([6]; pH 7): at least 28 hours |
